How the values were obtained:
IMR90 cells = assay: In vitro wound healing activity (scrape wound, cell migration); format: cell-based; settings: 24 hours, Compound 1 0.1, 0.5, 1 mM, Compound 3 0.05, 0.5, 1 μM
Procedure: The wound healing activities of Compounds 1 and 3 were in vitro assessed by the method provided in Valster et al., Methods, 2005, 37, 208-215 and Rodriguez et al., “Methods in Molecular Biology” in Cell Migration: Developmental Methods and Protocols, vol. 294, Ed by Guan et al. Humana. Press Inc.
IMR90 cells were seeded on a six-well culture dish and grown in MEM medium with 10% FBS to confluence in the presence of serum. The growth medium (MEM with 10% FBS) was then replaced with a serum-free medium (MEM without FBS). After starved for 24 hours, wounds were made by scraping using a P1000 pipette tip. […] The wounds were observed by a phase contrast microscopy using an inverted microscope. Images were taken at areas flanking the intersections of the wounds and the marker lines at regular intervals over a period of 24 hours. These images were analyzed through a digital imaging system using Image-Pro Plus® (Media Cybernetics, Silver Spring, Md.) to determine the position of the migrating cells at the wound edges. The cell migration distance was calculated by substracting the width of the wound at each interval from its initial width.

5-FU-induced mucositis = assay: In vivo anti-mucositis activity (5-FU, buccal pouch wound); parameters: species or system Syrian golden hamsters; settings: hamster, subcutaneous once a day Day 0 to Day 5; Compound 1 36, 72, 144 mg/kg; Compound 3 0.5, 5.0, 50.0 mg/kg; dose-dependent
Procedure: Twenty young Syrian golden hamsters, 7 to 8 weeks old weighing 90 to 130 g, were numbered and randomly divided into five groups (4 hamsters each group).
Each hamster in the five groups was punched at the right buccal pouch mucosa with a skin puncher on Day 0 to give a 6 mm diameter wound. Four groups were intraperitoneally administered with 5-FU at 20 mg/kg twice at Day 0 and one group was used as a control without any treatment. […] Wounds were examined macroscopically and microscopically 0.5, 1, 2, 3, 4, 5, and 6 days after the punching. The hematological parameters, serum biochemistry, extents of inflammatory cell infiltration, sizes of hemorrhagic areas, and presence of ulcers and abscesses were recorded. After Day 6, all of the hamsters were anesthetized with isoflurane (2-chloro-2-difluoromethoxy-1,1,1-trifluoro-ethane) for macroscopic and histological analysis and Western blot analysis.

[1] = target: histone deacetylase (HDAC); assay: HDAC inhibition assay (Fluor de Lys fluorescent assay, HeLa lysate); format: biochemical; settings: mantissa in r5, exponent and unit in r6
Procedure: The histone deacetylase (HDAC) activity was measured in HeLa lysate suspensions using a Fluor de Lys™ fluorescent assay system (Biomol, Enzo Life Sciences; PA, USA) with some modification as described previously (Pflum et al., 2007). In brief, HeLa lysate (1.5 μl) were preincubated in the presence of test compound or vehicle (DMSO, 0.2% v/v) at 30° C. for 10 minutes, therefore Fluor de Lys™ substrate (125 μM) was added and incubated at 37° C. under shaking for 45 minutes. Finally, the developer reagent (95 μl, 1×) was immediately added to the same aliquot of the reaction mixture for another 10 minutes. The extent of deacetylated substrate formation was monitored by a microplate fluorescence reader (Thermo Varioskan Flash, Thermofisher; MA, USA) to determine the fluorescence intensity (excitation at 360 nm, emission at 460 nm). The results were expressed as the percent inhibition of the rate of deacetylated substrate formation on the reacting interval. […] See Bieliauskas et al., Bioorg. Med. Chem. Lett., 2007, 17: 2216-2219.

COX-2 = assay: In vitro COX-2 protein expression (Western blot); format: cell-based; settings: IMR90 cells; 0.05-1.0 μM; dose-dependent
Procedure: To detect COX-2 protein expression, Western blot analysis was performed as follows. Briefly, Compound 3-treated IMR90 cells, stimulated by wounds (scraping using a P1000 pipette tip) and non-stimulated, were collected and lysed in 1× lysis buffer. Protein concentrations of these lysed cells were measured using Bio-Rad quantification assay (Bio-Rad Laboratory, CA). Protein extracts (20 μg) were subjected to electrophoresis on a 10% SDS-PAGE and transferred to PVDF membrane. The antibody recognizing COX-2 was obtained from Epitomics (Burlingame, Calif.). The antibody recognizing β-actin was from obtained Sigma (St. Louis, Mo.). All antibodies were rabbit polyclonal antibodies except for the β-actin antibody, which was a mouse monoclonal antibody. Secondary antibodies were anti-rabbit IgG and anti-mouse IgG (horseradish-peroxidase linked antibodies), respectively (Amersham Biosciences, Piscataway, N.J.). Primary antibodies were used at a 1:1,000 dilution and secondary antibodies were used at a 1:5,000 dilution in a solution containing 5% BSA in TBS-T. Immunoreactive proteins were detected using the enhanced chemiluminescence light (ECL) detecting kit (Millipore).

Row | melting point | IC50 [1] [nM] | SMILES | wound healing (IMR90 cells) | 5-FU-induced mucositis in wound areas (5-FU-induced mucositis) | COX-2 protein expression (COX-2)
1 | 230 °C (dec.) |  | NC(Cc1ccc(O)cn1)C(=O)Nc1ccc(CCCC(=O)NO)cc1 (stereo not shown) [Compound 6, 4-(4-(2-amino-3-(5-hydroxypyridin-2-yl)-propanamido)phenyl)-N-hydroxybutanamide] |  |  | 
2 | 95 to 96 °C |  | CC(C)(C(=O)NO)C(O)Cc1ccccc1 (stereo not shown) [Compound 2, N,3-dihydroxy-2,2-dimethyl-4-phenylbutanamide] |  |  | 
3 | 106 to 108 °C | 1320 | CC(C)(C)OC(=O)NC(Cc1ccc(OCc2ccccc2)cn1)C(=O)NCc1ccc(C(=O)NO)cc1 (stereo not shown) [Compound 7, tert-butyl 3-(5-(benzyloxy)pyridin-2-yl)-1-(4-(hydroxycarbamoyl)benzylamino)-1-oxopropan-2-ylcarbamate] |  |  | 
4 | 166 to 167 °C | 4130 | CC(C)(C)OC(=O)NC(Cc1ccc(O)cn1)C(=O)Nc1ccc(CCCC(=O)NO)cc1 (stereo not shown) [Compound 4, tert-butyl-1-(4-(4-(hydroxyamino)-4-oxobutyl)phenylamino)-3-(5-hydroxypyridin-2-yl)-1-oxopropan-2-ylcarbamate] |  |  | 

More lines, now with the values behind:

Row | SMILES | melting point | IC50 [1] [nM] | wound healing (IMR90 cells) | 5-FU-induced mucositis in wound areas (5-FU-induced mucositis) | COX-2 protein expression (COX-2)
5 | O=C(CCCc1ccccc1)NO [Compound 1, N-hydroxy-4-phenylbutanamide] |  |  | promoted wound healing | reduced 5-FU-induced mucositis | 
6 | NC(Cc1ccc(OCc2ccccc2)cn1)C(=O)Nc1ccc(CCCC(=O)NO)cc1 (stereo not shown) [Compound 5, 4-(4-(2-amino-3-(5-(benzyloxy)pyridin-2-yl)propanamido)phenyl)-N-hydroxybutanamide] | > 300 °C |  |  |  | 
7 | CC(C)(C)OC(=O)N[C@H](Cc1ccc(OCc2ccccc2)cn1)C(=O)Nc1ccc(CCCC(=O)NO)cc1 [Compound 3, (R)-tert-butyl 3-(5-(benzyloxy)pyridin-2-yl)-1-(4-(4-(hydroxylamino)-4-oxobutyl)phenylamino)-1-oxopropan-2-ylcarbamate] |  | 398 | promoted wound healing | reduced 5-FU-induced mucositis | inhibited COX-2 protein expression
